Results reported in patent US10047051B2, “Substituted pyridines and method of use” (AbbVie S.á{acute over (.)}r.l., priority 2015, dated 2018).

Legend:
Format in all cases: cell-based
CFTR-G1349D = target: T1, CFTR-G1349D (Homo sapiens, UniProt P13569, G1349D); assay: YFP-halide influx assay for the CFTR-G1349D
T1 construct: expressed in transfected cells
From the text: (§1) The YFP halide influx assay measured the functionality of the cystic fibrosis Transmembrane Conductance regulator (CFTR) channels. The assay was used to evaluate the capacity of compounds to increase the channel opening of existing mutant CFTR channels in the membrane. It makes use of the observation that the yellow fluorescent protein (YFP) variant YFP H148Q, I152L, F47L has its fluorescence substantially quenched by halide ions like Cl^− and I^− (Galietta, L. J. V., Haggie, P. M., Verkman, A. S., 2001. Green fluorescent protein-based halide indicators with improved chloride and iodide affinities. FEBS Lett. 499, 220-224. doi:10.1016/S0014-5793(01)02561-3).
(§2) For this purpose, HEK293-cells were seeded in 96 well plates. During seeding, the cells were reverse-transfected with plasmid vectors that direct the expression of the CFTR G551D mutant and of the YFP reporter. Cells were incubated at 37° C., 5% CO2 for 24 hours so as to allow for sufficient expression of the CFTR protein.
(§3) The I^−-induced quenching of fluorescence was recorded immediately after injection of I^− for 7 seconds. The capacity of a compound to increase the channel opening was directly correlated with the decrease in fluorescence, and was expressed as (1−(fluorescence after 7 seconds (F)/fluorescence before injection (F0))) and an EC50 was derived from a (1−F/F0) vs compound concentration plot.
(§4) Similar YHA assays were developed for other channel gating defective or channel conductance defective CFTR mutants to determine effect of compound on channel activity. Examples of mutants are G178R, G1349D, S549N, R117H, R334W. This assay is also used for additional class I CFTR mutants, including G542X, W1282X; class II mutants including N1303K, and for class III mutants including S1251N; or wild-type CFTR.

CFTR G551D mutant = target: T2, CFTR G551D mutant (Homo sapiens, UniProt P13569, G551D); assay: YFP-halide influx assay for the CFTR-G551D mutation (HEK293 cells); settings: forskolin 10.67 μM
T2 construct: expressed in transfected cells; host or cells: HEK293 cells, reverse transfection with plasmids
T2 sequence (P13569 whole entry G551D): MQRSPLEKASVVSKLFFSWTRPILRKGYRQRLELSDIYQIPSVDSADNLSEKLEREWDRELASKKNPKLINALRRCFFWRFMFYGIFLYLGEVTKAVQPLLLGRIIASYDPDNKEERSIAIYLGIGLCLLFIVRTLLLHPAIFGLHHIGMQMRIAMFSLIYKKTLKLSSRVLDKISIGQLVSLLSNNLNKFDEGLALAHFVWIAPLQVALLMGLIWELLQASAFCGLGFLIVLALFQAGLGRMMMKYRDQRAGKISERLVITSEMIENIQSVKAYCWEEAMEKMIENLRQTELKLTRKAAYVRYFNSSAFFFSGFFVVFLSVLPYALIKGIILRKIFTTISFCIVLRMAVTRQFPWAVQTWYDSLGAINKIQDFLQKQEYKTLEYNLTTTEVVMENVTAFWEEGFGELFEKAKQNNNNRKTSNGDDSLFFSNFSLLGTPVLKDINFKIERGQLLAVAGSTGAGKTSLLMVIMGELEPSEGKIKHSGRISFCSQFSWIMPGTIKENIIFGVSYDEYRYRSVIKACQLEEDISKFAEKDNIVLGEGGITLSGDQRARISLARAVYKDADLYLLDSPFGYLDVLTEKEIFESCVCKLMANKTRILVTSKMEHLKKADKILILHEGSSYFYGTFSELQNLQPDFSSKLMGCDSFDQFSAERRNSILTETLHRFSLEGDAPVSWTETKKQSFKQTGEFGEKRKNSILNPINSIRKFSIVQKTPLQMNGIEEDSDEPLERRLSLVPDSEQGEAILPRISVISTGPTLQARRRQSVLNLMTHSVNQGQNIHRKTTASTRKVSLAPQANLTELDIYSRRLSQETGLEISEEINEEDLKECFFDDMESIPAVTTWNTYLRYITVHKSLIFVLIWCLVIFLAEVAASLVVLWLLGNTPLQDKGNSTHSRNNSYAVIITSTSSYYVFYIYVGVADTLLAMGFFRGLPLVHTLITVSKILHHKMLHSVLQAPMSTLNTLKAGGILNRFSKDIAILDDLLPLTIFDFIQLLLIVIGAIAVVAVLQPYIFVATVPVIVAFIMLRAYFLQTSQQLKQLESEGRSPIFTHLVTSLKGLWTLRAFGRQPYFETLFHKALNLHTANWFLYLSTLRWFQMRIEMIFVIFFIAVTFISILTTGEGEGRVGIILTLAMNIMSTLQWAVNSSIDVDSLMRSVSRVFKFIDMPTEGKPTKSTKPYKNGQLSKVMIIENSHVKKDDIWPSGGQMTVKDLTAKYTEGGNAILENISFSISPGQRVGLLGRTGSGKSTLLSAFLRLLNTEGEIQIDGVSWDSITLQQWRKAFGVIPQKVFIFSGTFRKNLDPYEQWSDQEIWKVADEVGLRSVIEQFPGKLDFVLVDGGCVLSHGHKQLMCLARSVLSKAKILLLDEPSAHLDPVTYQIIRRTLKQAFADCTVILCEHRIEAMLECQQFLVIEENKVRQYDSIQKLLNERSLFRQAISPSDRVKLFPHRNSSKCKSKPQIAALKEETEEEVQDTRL
In short: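 Channel opening read as I⁻-driven quenching of a YFP H148Q/I152L/F47L reporter over 7 s post-injection, expressed as 1−F/F0 and fitted against concentration for EC50. Cells were HEK293 co-transfected at seeding with G551D CFTR plus reporter, then grown 24 h at 37 °C, 5% CO2.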

CFTR-R117H = target: T3, CFTR-R117H (Homo sapiens, UniProt P13569, R117H); assay: YFP-halide influx assay for the CFTR-R117H
T3 construct: expressed in transfected cells
T3 sequence (P13569 whole entry R117H): as the sequence (P13569 whole entry G551D) above, with R117H, D551G counted along it
From the text: as §1, §2, §3, §4

CFTR ΔF508 mutant = target: T4, CFTR ΔF508 mutant (Homo sapiens, UniProt P13569, DEL508-508); assay: YFP-halide influx assay for the CFTR-ΔF508 mutation (CFBE41o- cells); settings: forskolin 10.67 μM; for EC50: from (1−F/F0) vs concentration plot
T4 construct: expressed in transfected cells; host or cells: CFBE41o- cells, adenoviral transduction
T4 sequence (P13569 with tags, fused parts or gaps DEL508-508): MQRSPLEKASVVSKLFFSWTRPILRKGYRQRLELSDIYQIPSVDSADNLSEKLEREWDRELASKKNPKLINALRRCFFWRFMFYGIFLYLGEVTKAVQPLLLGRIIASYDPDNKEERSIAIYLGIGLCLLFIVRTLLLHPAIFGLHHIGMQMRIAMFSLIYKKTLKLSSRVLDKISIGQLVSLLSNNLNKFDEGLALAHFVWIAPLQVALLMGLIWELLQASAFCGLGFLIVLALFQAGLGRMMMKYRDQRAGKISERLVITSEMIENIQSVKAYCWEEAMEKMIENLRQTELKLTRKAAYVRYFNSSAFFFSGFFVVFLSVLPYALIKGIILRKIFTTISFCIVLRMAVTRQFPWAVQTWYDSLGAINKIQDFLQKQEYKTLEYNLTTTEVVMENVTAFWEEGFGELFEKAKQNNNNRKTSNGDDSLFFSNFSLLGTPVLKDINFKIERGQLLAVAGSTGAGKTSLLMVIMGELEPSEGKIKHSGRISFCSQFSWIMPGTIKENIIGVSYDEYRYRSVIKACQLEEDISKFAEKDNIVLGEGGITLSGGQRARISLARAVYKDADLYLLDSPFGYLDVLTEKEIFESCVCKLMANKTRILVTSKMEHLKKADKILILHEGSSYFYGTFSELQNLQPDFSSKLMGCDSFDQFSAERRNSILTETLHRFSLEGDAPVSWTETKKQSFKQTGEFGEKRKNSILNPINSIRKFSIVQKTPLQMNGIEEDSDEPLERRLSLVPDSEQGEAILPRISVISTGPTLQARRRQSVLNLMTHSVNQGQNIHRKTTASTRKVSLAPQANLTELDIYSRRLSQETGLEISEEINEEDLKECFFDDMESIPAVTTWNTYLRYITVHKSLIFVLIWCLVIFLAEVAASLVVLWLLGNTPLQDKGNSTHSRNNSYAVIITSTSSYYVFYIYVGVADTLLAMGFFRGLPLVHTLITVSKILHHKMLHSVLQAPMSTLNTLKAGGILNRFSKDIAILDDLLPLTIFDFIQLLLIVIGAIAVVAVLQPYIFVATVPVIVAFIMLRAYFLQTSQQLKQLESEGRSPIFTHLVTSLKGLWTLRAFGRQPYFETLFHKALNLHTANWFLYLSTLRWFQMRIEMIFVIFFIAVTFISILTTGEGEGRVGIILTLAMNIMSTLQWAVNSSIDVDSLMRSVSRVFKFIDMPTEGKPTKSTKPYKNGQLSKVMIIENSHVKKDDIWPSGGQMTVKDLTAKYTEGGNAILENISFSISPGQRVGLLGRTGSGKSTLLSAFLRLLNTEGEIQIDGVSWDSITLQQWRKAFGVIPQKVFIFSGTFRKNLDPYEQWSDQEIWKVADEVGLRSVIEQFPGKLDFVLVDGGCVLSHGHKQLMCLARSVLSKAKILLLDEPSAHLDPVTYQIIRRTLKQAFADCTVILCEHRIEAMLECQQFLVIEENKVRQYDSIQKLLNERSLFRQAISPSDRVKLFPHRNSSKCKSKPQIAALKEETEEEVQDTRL
In short: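 EC50 derived from plotting 1−F/F0 (fluorescence 36 s after iodide injection over pre-injection value) against compound concentration. Cells: CFBE41o- transduced with ΔF508-CFTR and YFP quench reporter, corrected 24 h at 27° C or by a CFTR modulator at 37° C.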

CFTR-S549N = target: T5, CFTR-S549N (Homo sapiens, UniProt P13569, S549N); assay: YFP-halide influx assay for the CFTR-S549N; set-up: % Activation: concentration or dose not given beside the values
T5 construct: expressed in transfected cells
T5 sequence (P13569 whole entry S549N): as the sequence (P13569 whole entry G551D) above, with S549N, D551G counted along it
From the text: as §1, §2, §3, §4

CFTR-G178R = target: T6, CFTR-G178R (Homo sapiens, UniProt P13569, G178R); assay: YFP-halide influx assay for the CFTR-G178R
T6 construct: expressed in transfected cells
T6 sequence (P13569 whole entry G178R): as the sequence (P13569 whole entry G551D) above, with G178R, D551G counted along it
From the text: as §1, §2, §3, §4

T1 sequence (P13569 whole entry G1349D): as the sequence (P13569 whole entry G551D) above, with D551G, G1349D counted along it

Row | SMILES | % Activation (CFTR-G1349D) | EC50 (CFTR-G1349D) | % Activation (CFTR G551D mutant) | EC50 (CFTR G551D mutant) | % Activation (CFTR-R117H) | EC50 (CFTR-R117H) | % Activation (CFTR ΔF508 mutant) | EC50 (CFTR ΔF508 mutant) | % Activation (CFTR-S549N) | EC50 (CFTR-S549N) | % Activation (CFTR-G178R) | EC50 (CFTR-G178R)
1 | Nc1cc(S(=O)(=O)c2ccc(OC(F)(F)F)cc2)cnc1C(=O)N[C@@H]1COCC[C@@H]1O (racemic) [Compound 33, rac-3-amino-N-[(3R,4S)-4-hydroxytetrahydro-2H-pyran-3-yl]-5-{[4-(trifluoromethoxy)phenyl]sulfonyl}pyridine-2-carboxamide] | 92.9% | 0.543 µM | 62.3% | 1.39 µM | 87.1% | 0.628 µM | 98.6% | 0.0428 µM | 82.2% | 0.735 µM | 81.8% | 0.514 µM
2 | Nc1cc(S(=O)(=O)c2ccc(OC(F)(F)F)cc2)cnc1C(=O)N[C@@H]1COC[C@H]1O (racemic) [Compound 74, rac-3-amino-N-[(3R,4S)-4-hydroxytetrahydrofuran-3-yl]-5-{[4-(trifluoromethoxy)phenyl]sulfonyl}pyridine-2-carboxamide] | 86.8% | 0.511 µM | 65.0% | 0.839 µM | 100.0% | 0.866 µM | 110.0% | 0.0172 µM | 91.4% | 0.567 µM | 84.3% | 0.348 µM
3 | CC(C)(C)C(O)CNC(=O)c1ncc(S(=O)(=O)c2ccc(OC(F)(F)F)cc2)cc1N (stereo not drawn) [Compound 16, 3-amino-N-(2-hydroxy-3,3-dimethylbutyl)-5-{[4-(trifluoromethoxy)phenyl]sulfonyl}pyridine-2-carboxamide] | 99.6% | 0.698 µM | 96.2% | 1.67 µM | 112.0% | 0.431 µM | 106.5% | 0.0157 µM | 114.0% | > 3.33 µM | 102.0% | 1.01 µM
4 | CC(C)NC(=O)CNC(=O)c1ncc(S(=O)(=O)c2ccc(OC(F)(F)F)cc2)cc1N [Compound 57, 3-amino-N-[2-oxo-2-(propan-2-ylamino)ethyl]-5-{[4-(trifluoromethoxy)phenyl]sulfonyl}pyridine-2-carboxamide] | 59.6% | 0.457 µM | 51.8% | 0.385 µM | 72.8% | 0.356 µM | 93.1% | 0.0071 µM | – | – | – | –
5 | Nc1cc(S(=O)(=O)c2ccc(C(F)(F)F)cc2)cnc1C(=O)NC[C@@H](O)C(F)(F)F [Compound 63, 3-amino-N-[(2R)-3,3,3-trifluoro-2-hydroxypropyl]-5-{[4-(trifluoromethyl)phenyl]sulfonyl}pyridine-2-carboxamide] | 82.8% | 0.256 µM | 60.8% | 0.262 µM | 89.3% | 0.152 µM | 102.0% | 0.0031 µM | – | – | – | –
6 | Nc1cc(S(=O)(=O)c2ccccc2OC(F)(F)F)cnc1C(=O)NCCO [Compound 75, 3-amino-N-(2-hydroxyethyl)-5-{[2-(trifluoromethoxy)phenyl]sulfonyl}pyridine-2-carboxamide] | 98.7% | 0.284 µM | 68.5% | 1.51 µM | 98.4% | 0.472 µM | 121.0% | 0.0076 µM | – | 0.251 µM | 94.3% | 0.323 µM
7 | Nc1cc(S(=O)(=O)c2ccccc2OC(F)(F)F)cnc1C(=O)N1CC(F)(F)C1 [Compound 78, (3-amino-5-{[2-(trifluoromethoxy)phenyl]sulfonyl}pyridin-2-yl)(3,3-difluoroazetidin-1-yl)methanone] | 85.36% | 0.0523 µM | 55.9% | 0.609 µM | 89.74% | 0.0595 µM | 123.0% | 0.0022 µM | 80.37% | 0.116 µM | 73% | 0.0581 µM
8 | Nc1cc(S(=O)(=O)c2ccc(OC(F)(F)F)cc2)cnc1C(=O)N1CC(O)(C(F)(F)F)C1 [Compound 79, (3-amino-5-{[4-(trifluoromethoxy)phenyl]sulfonyl}pyridin-2-yl)[3-hydroxy-3-(trifluoromethyl)azetidin-1-yl]methanone] | 83.08% | 0.0614 µM | 48.9% | 0.256 µM | 103.1% | 0.0222 µM | 99.5% | 0.0033 µM | 88.09% | 0.0443 µM | 74.5% | 0.0313 µM

The next lines start with the values.

Row | % Activation (CFTR-G1349D) | EC50 (CFTR-G1349D) | % Activation (CFTR G551D mutant) | EC50 (CFTR G551D mutant) | % Activation (CFTR-R117H) | EC50 (CFTR-R117H) | % Activation (CFTR ΔF508 mutant) | EC50 (CFTR ΔF508 mutant) | % Activation (CFTR-S549N) | EC50 (CFTR-S549N) | % Activation (CFTR-G178R) | EC50 (CFTR-G178R) | SMILES
9 | 76.6% | 0.738 µM | 56.1% | 0.81 µM | 89.6% | 0.326 µM | 97.2% | 0.0115 µM | – | – | – | – | CC1(O)CN(C(=O)c2ncc(S(=O)(=O)c3ccc(C(F)(F)F)cc3)cc2N)C1 [Compound 91, (3-amino-5-{[4-(trifluoromethyl)phenyl]sulfonyl}pyridin-2-yl) (3-hydroxy-3-methylazetidin-1-yl)methanone]
10 | 67.7% | 0.448 µM | 52.6% | 0.368 µM | 87.8% | 0.351 µM | 110.0% | 0.0262 µM | – | – | – | – | Nc1cc(S(=O)(=O)c2ccc(C(F)(F)F)cc2)cnc1C(=O)N1CC(F)(F)C1 [Compound 103, (3-amino-5-{[4-(trifluoromethyl)phenyl]sulfonyl}pyridin-2-yl)(3,3-difluoroazetidin-1-yl)methanone]
11 | 99.5% | 0.77 µM | 49.5% | 0.419 µM | 90.7% | 0.621 µM | 93.2% | 0.208 µM | – | – | – | – | CCOCC1(CNC(=O)c2ncc(S(=O)(=O)c3ccc(OC(F)(F)F)cc3)cc2N)CCC1 [Compound 118, 3-amino-N-{[1-(ethoxymethyl)cyclobutyl]methyl}-5-{[4-(trifluoromethoxy)phenyl]sulfonyl}pyridine-2-carboxamide]
12 | 84.8% | 0.32 µM | 64.6% | 0.554 µM | 89.9% | 0.307 µM | 101.0% | 0.0341 µM | – | – | – | – | Nc1cc(S(=O)(=O)c2ccc(OC(F)(F)F)cc2)cnc1C(=O)N1CC(OCC(F)F)C1 [Compound 119, (3-amino-5-{[4-(trifluoromethoxy)phenyl]sulfonyl}pyridin-2-yl)[3-(2,2-difluoroethoxy)azetidin-1-yl]methanone]
13 | 55.4% | 0.703 µM | 78.3% | 0.674 µM | 77.6% | 0.58 µM | 93.9% | 0.102 µM | – | – | – | – | CCC1(F)CN(C(=O)c2ncc(S(=O)(=O)c3ccc(OC(F)(F)F)cc3)cc2N)C1 [Compound 130, (3-amino-5-{[4-(trifluoromethoxy)phenyl]sulfonyl}pyridin-2-yl)(3-ethyl-3-fluoroazetidin-1-yl)methanone]
14 | 97.6% | 0.637 µM | 81.9% | 0.881 µM | 107.0% | 0.499 µM | 98.1% | 0.0663 µM | – | – | – | – | COCC1(C)CN(C(=O)c2ncc(S(=O)(=O)c3ccc(OC(F)(F)F)cc3)cc2N)C1 [Compound 154, (3-amino-5-{[4-(trifluoromethoxy)phenyl]sulfonyl}pyridin-2-yl)[3-(methoxymethyl)-3-methylazetidin-1-yl]methanone]
